In patent US20260262643A1, “HERBICIDAL BENZOXAZINES” (FMC CORPORATION, priority 2022, published 2026):

Assays:
barnyardgrass [1] = test: Test C preemergence; type: in vivo, Echinochloa crusgalli
How it was run: (§1)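 Seeds sown in loam soil–sand blend received a directed preemergence soil spray of test chemical in non-phytotoxic solvent with surfactant; postemergence plants (2–10 cm, one- to two-leaf stage) were sprayed with the same formulation. Greenhouse-held 10 days, then visually rated for injury versus untreated controls, 0 (no effect) to 100 (complete control).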

blackgrass [2] = test: Test C preemergence; type: in vivo, Alopecurus myosuroides
How it was run: as §1

corn [3] = test: Test C preemergence; type: in vivo, Zea mays
How it was run: as §1

green foxtail [4] = test: Test C preemergence; type: in vivo, Setaria viridis
How it was run: as §1

kochia [5] = test: Test C preemergence; type: in vivo, Bassia scoparia
How it was run: as §1

oat, wild [6] = test: Test C preemergence; type: in vivo, Avena fatua
How it was run: as §1

pigweed, palmer [7] = test: Test C preemergence; type: in vivo, Amaranthus palmeri
How it was run: as §1

ragweed [8] = test: Test C preemergence; type: in vivo, Ambrosia artemisiifolia
How it was run: as §1

ryegrass, Italian [9] = test: Test C preemergence; type: in vivo, Lolium multiflorum
How it was run: as §1

soybean [10] = test: Test C preemergence; type: in vivo, Glycine max
How it was run: as §1

wheat [11] = test: Test C preemergence; type: in vivo, Triticum aestivum
How it was run: as §1

barnyardgrass [12] = test: Test C postemergence; type: in vivo, Echinochloa crusgalli; conditions: 10 days, 0 to 100 scale (0 no effect, 100 complete control)
How it was run: as §1

blackgrass [13] = test: Test C postemergence; type: in vivo, Alopecurus myosuroides; conditions: 10 days, 0 to 100 scale (0 no effect, 100 complete control)
How it was run: as §1

corn [14] = test: Test C postemergence; type: in vivo, Zea mays; conditions: 10 days, 0 to 100 scale (0 no effect, 100 complete control)
How it was run: as §1

green foxtail [15] = test: Test C postemergence; type: in vivo, Setaria viridis; conditions: 10 days, 0 to 100 scale (0 no effect, 100 complete control)
How it was run: as §1

kochia [16] = test: Test C postemergence; type: in vivo, Bassia scoparia; conditions: 10 days, 0 to 100 scale (0 no effect, 100 complete control)
How it was run: as §1

oat, wild [17] = test: Test C postemergence; type: in vivo, Avena fatua; conditions: 10 days, 0 to 100 scale (0 no effect, 100 complete control)
How it was run: as §1

pigweed, palmer [18] = test: Test C postemergence; type: in vivo, Amaranthus palmeri; conditions: 10 days, 0 to 100 scale (0 no effect, 100 complete control)
How it was run: as §1

ragweed [19] = test: Test C postemergence; type: in vivo, Ambrosia artemisiifolia; conditions: Postemergence, 125 g ai/ha; 0 to 100 scale (0 no effect, 100 complete control), 10 days
How it was run: as §1

ryegrass, Italian [20] = test: Test C postemergence; type: in vivo, Lolium multiflorum; conditions: Postemergence, 125 g ai/ha; 0 to 100 scale (0 no effect, 100 complete control), 10 days
How it was run: as §1

soybean [21] = test: Test C postemergence; type: in vivo, Glycine max; conditions: Postemergence, 125 g ai/ha; 0 to 100 scale (0 no effect, 100 complete control), 10 days
How it was run: as §1

wheat [22] = test: Test C postemergence; type: in vivo, Triticum aestivum; conditions: Postemergence, 125 g ai/ha; 0 to 100 scale (0 no effect, 100 complete control), 10 days
How it was run: as §1

horseweed = test: Test C postemergence; type: in vivo, Erigeron canadensis; conditions: 10 days, 0 to 100 scale (0 no effect, 100 complete control)
How it was run: as §1

barnyardgrass [23] = test: Test D flooded paddy test; type: in vivo, Echinochloa crus-galli; conditions: 250 g ai/ha, applied to paddy water, visual rating after 13 to 14 days, scale 0 to 100 (0 no effect, 100 complete control)
How it was run: (§2)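 Rating scale 0–100 (0 no effect, 100 complete control), visual, versus controls. Readout at 13–14 days after in-water application to 2-leaf plants in pots flooded 3 cm deep.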

ducksalad = test: Test D flooded paddy test; type: in vivo, Heteranthera limosa; conditions: 250 g ai/ha, applied to paddy water, visual rating after 13 to 14 days, scale 0 to 100 (0 no effect, 100 complete control)
How it was run: as §2

rice = test: Test D flooded paddy test; type: in vivo, Oryza sativa; conditions: 250 g ai/ha, applied to paddy water, visual rating after 13 to 14 days, scale 0 to 100 (0 no effect, 100 complete control)
How it was run: as §2

sedge, umbrella = test: Test D flooded paddy test; type: in vivo, Cyperus difformis; conditions: 250 g ai/ha, applied to paddy water, visual rating after 13 to 14 days, scale 0 to 100 (0 no effect, 100 complete control)
How it was run: as §2

[24] = 500 g ai/ha, preemergence, 0 to 100 scale (0 no effect, 100 complete control)
[25] = Preemergence, 125 g ai/ha, 0 to 100 scale, 0 no effect, 100 complete control

Cc1ccc(-n2cnc(C3(C#N)CCC3)n2)cc1C(=O)N1C[C@H](C)Oc2c(Cl)cccc21 [Compound 402]
Barnyardgrass plant response rating (barnyardgrass [1]; [24]): 100 | Plant response rating, Barnyardgrass (barnyardgrass [1]; [25]): 60 | Blackgrass plant response rating (blackgrass [2]; [24]): 30 | Plant response rating, Blackgrass (blackgrass [2]; [25]): 30 | Corn plant response rating (corn [3]; [24]): 20 | Plant response rating, Corn (corn [3]; [25]): 0 | Foxtail, Green plant response rating (green foxtail [4]; [24]): 100 | Plant response rating, Foxtail, Green (green foxtail [4]; [25]): 100 | Kochia plant response rating (kochia [5]; [24]): 90 | Plant response rating, Kochia (kochia [5]; [25]): 90 | Oat, Wild plant response rating (oat, wild [6]; [24]): 40 | Plant response rating, Oat, Wild (oat, wild [6]; [25]): 20 | Pigweed, Palmer plant response rating (pigweed, palmer [7]; [24]): 100 | Plant response rating, Pigweed, Palmer (pigweed, palmer [7]; [25]): 100 | Ragweed plant response rating (ragweed [8]; [24]): 50 | Plant response rating, Ragweed (ragweed [8]; [25]): 0 | Ryegrass, Italian plant response rating (ryegrass, Italian [9]; [24]): 80 | Plant response rating, Ryegrass, Italian (ryegrass, Italian [9]; [25]): 70 | Soybean plant response rating (soybean [10]; [24]): 40 | Plant response rating, Soybean (soybean [10]; [25]): 20 | Wheat plant response rating (wheat [11]; [24]): 30 | Plant response rating, Wheat (wheat [11]; [25]): 0 | Plant response rating, Barnyardgrass (barnyardgrass [12]; 500 g ai/ha, postemergence): 50 | Plant response rating, Barnyardgrass (barnyardgrass [12]; Postemergence, 125 g ai/ha): 20 | Plant response rating, Blackgrass (blackgrass [13]; 500 g ai/ha, postemergence): 60 | Plant response rating, Blackgrass (blackgrass [13]; Postemergence, 125 g ai/ha): 20 | Plant response rating, Corn (corn [14]; 500 g ai/ha, postemergence): 60 | Plant response rating, Corn (corn [14]; Postemergence, 125 g ai/ha): 10 | Plant response rating, Foxtail, Green (green foxtail [15]; 500 g ai/ha, postemergence): 90 | Plant response rating, Foxtail, Green (green foxtail [15]; Postemergence, 125 g ai/ha): 70 | Plant response rating, Kochia (kochia [16]; 500 g ai/ha, postemergence): 90 | Plant response rating, Kochia (kochia [16]; Postemergence, 125 g ai/ha): 90 | Plant response rating, Oat, Wild (oat, wild [17]; 500 g ai/ha, postemergence): 20 | Plant response rating, Oat, Wild (oat, wild [17]; Postemergence, 125 g ai/ha): 0 | Plant response rating, Pigweed, Palmer (pigweed, palmer [18]; 500 g ai/ha, postemergence): 100 | Plant response rating, Pigweed, Palmer (pigweed, palmer [18]; Postemergence, 125 g ai/ha): 90 | Plant response rating, Ragweed (ragweed [19]): 90 | Plant response rating, Ryegrass, Italian (ryegrass, Italian [20]): 30 | Plant response rating, Soybean (soybean [21]): 40 | Plant response rating, Wheat (wheat [22]): 20 | Plant response rating, Horseweed (horseweed; 500 g ai/ha, postemergence): 70 | Plant response rating, Horseweed (horseweed; Postemergence, 125 g ai/ha): 50 | Plant response rating, Barnyardgrass (Flood) (barnyardgrass [23]): 25 | Plant response rating, Ducksalad (Flood) (ducksalad): 45 | Plant response rating, Rice (Flood) (rice): 0 | Plant response rating, Sedge, Umbrella (Flood) (sedge, umbrella): 25
